Several values for one entry are separate records, joined by “and”; a condition that tells them apart may be missing. Equal entries are not always repeated. Inconclusive results and toxic doses are left out. How the source made its calls: active means survival T/C of 150% or more; inactive means T/C below 125% in these data.
Tested on: BDF1 mice, B16 melanoma ip, median survival T/C
Test: NCI In Vivo Anticancer Drug Screen. Data for tumor model B16 Melanoma (intraperitoneal) in B6D2F1 (BDF1) mice
Settings: endpoint: median survival time, higher = longer survival
Procedure, shortened: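 Survival or tumor size is measured after treatment of tumor-bearing mice and normalised to the vehicle-treated control group.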

[1] = dose: 3.12 mg/kg/injection, schedule: Q01DX009 (ip), vehicle: saline
[2] = dose: 6.25 mg/kg/injection, schedule: Q01DX009 (ip), vehicle: saline
[3] = dose: 12.5 mg/kg/injection, schedule: Q01DX009 (ip), vehicle: saline
[4] = dose: 25.0 mg/kg/injection, schedule: Q01DX009 (ip), vehicle: saline
[5] = dose: 50.0 mg/kg/injection, schedule: Q01DX009 (ip), vehicle: saline
[6] = dose: 50.0 mg/kg/injection, schedule: Q04DX003 (ip), vehicle: saline
[7] = dose: 100.0 mg/kg/injection, schedule: Q01DX009 (ip), vehicle: saline with Tween-80
[8] = dose: 200.0 mg/kg/injection, schedule: Q01DX009 (ip), vehicle: saline with Tween-80
[9] = dose: 50.0 mg/kg/injection, schedule: Q01DX009 (ip), vehicle: Klucel (hydroxypropylcellulose) (HPC)
[10] = dose: 100.0 mg/kg/injection, schedule: Q01DX009 (ip), vehicle: Klucel (hydroxypropylcellulose) (HPC)
[11] = dose: 200.0 mg/kg/injection, schedule: Q01DX009 (ip), vehicle: Klucel (hydroxypropylcellulose) (HPC)
[12] = dose: 12.5 mg/kg/injection, schedule: Q01DX009 (ip), vehicle: Klucel (hydroxypropylcellulose) (HPC)
[13] = dose: 25.0 mg/kg/injection, schedule: Q01DX009 (ip), vehicle: Klucel (hydroxypropylcellulose) (HPC)
[14] = dose: 400.0 mg/kg/injection, schedule: Q01DX009 (ip), vehicle: Klucel (hydroxypropylcellulose) (HPC)
[15] = dose: 12.5 mg/kg/injection, schedule: Q01DX009 (ip), vehicle: saline with Tween-80

Measured: T/C

C=CCC(N)Cc1ccccc1 (stereo not given)
inactive: [1] 105 % of control | dose: 3.12 mg/kg/injection, schedule: Q04DX003 (ip), vehicle: saline 112 % of control | [2] 105 % of control | dose: 6.25 mg/kg/injection, schedule: Q04DX003 (ip), vehicle: saline 105 % of control | [3] 111 % of control | dose: 12.5 mg/kg/injection, schedule: Q04DX003 (ip), vehicle: saline 97 % of control | [4] 100 % of control | dose: 25.0 mg/kg/injection, schedule: Q04DX003 (ip), vehicle: saline 100 % of control | [5] 110 % of control | [6] 100 % of control

CCC(C)C(=O)OC1C(=O)OC2CC3C(C)=CC(=O)C(O)C3(C)C3C4(O)OCC23C1C(C)C4O (stereo not given)
active: dose: 1.4 mg/kg/injection, schedule: Q01DX009 (ip), vehicle: saline 157 % of control | dose: 2.8 mg/kg/injection, schedule: Q01DX009 (ip), vehicle: saline with Tween-80 153 % of control

CC(=O)OC(OC(C)=O)c1ccc([N+](=O)[O-])cc1
inactive: [7] 93 % of control | [8] 95 % of control | dose: 400.0 mg/kg/injection, schedule: Q01DX009 (ip), vehicle: saline with Tween-80 86 % of control

CC(=O)NS(=O)(=O)c1ccc(NC(=O)c2ccccc2C(=O)O)cc1
inactive: [9] 98 % of control | [10] 96 % of control | [11] 93 % of control

COc1ccc(S(=O)(=O)NC(=S)S)cc1
inactive: dose: 12.5 mg/kg/injection, schedule: Q01DX009 (ip), vehicle: water 103 % of control | dose: 25.0 mg/kg/injection, schedule: Q01DX009 (ip), vehicle: water 102 % of control | dose: 50.0 mg/kg/injection, schedule: Q01DX009 (ip), vehicle: water 100 % of control | dose: 100.0 mg/kg/injection, schedule: Q01DX009 (ip), vehicle: water 103 % of control

CC(=O)O[C@H]1CC[C@H]2[C@@H]3CC[C@H]4CC=C(C#N)C[C@]4(C)[C@H]3CC[C@]12C
inactive: [12] 86 % of control | [13] 94 % of control | [9] 88 % of control

ClCC[N+]12CC[N+](CCCl)(CC1)C2 (tested in a mixture with another compound)
inactive: [5] 120 % of control | dose: 100.0 mg/kg/injection, schedule: Q01DX009 (ip), vehicle: saline 115 % of control | dose: 200.0 mg/kg/injection, schedule: Q01DX009 (ip), vehicle: saline 121 % of control

CCCCCCCCCc1ccc(OC(=O)CCC)cc1
inactive: [12] 106 % of control | [13] 94 % of control | [14] 87 % of control

CCCC(C(CC)CN(C)C)N(C)C (stereo not given)
inactive: [15] 90 % of control | dose: 25.0 mg/kg/injection, schedule: Q01DX009 (ip), vehicle: saline with Tween-80 96 % of control | dose: 50.0 mg/kg/injection, schedule: Q01DX009 (ip), vehicle: saline with Tween-80 94 % of control

COC(=O)C1=C(O)CN(C)C1=O
inactive: dose: 37.5 mg/kg/injection, schedule: Q04DX003 (ip), vehicle: saline 102 % of control | dose: 75.0 mg/kg/injection, schedule: Q04DX003 (ip), vehicle: saline 100 % of control | dose: 150.0 mg/kg/injection, schedule: Q04DX003 (ip), vehicle: saline 108 % of control

COc1ccc(C(=O)/C(Br)=C/C(=O)O)cc1
inactive: dose: 2.5 mg/kg/injection, schedule: Q01DX009 (ip), vehicle: saline 99 % of control | dose: 5.0 mg/kg/injection, schedule: Q01DX009 (ip), vehicle: saline 96 % of control | dose: 10.0 mg/kg/injection, schedule: Q01DX009 (ip), vehicle: saline 95 % of control and 98 % of control | dose: 20.0 mg/kg/injection, schedule: Q01DX009 (ip), vehicle: saline 96 % of control | dose: 40.0 mg/kg/injection, schedule: Q01DX009 (ip), vehicle: saline 95 % of control and 100 % of control

C1=Cc2ccccc2/C1=C/c1ccc(/C=C2\C=Cc3ccccc32)cc1
inactive: dose: 100.0 mg/kg/injection, schedule: Q04DX003 (ip), vehicle: Klucel (hydroxypropylcellulose) (HPC) 98 % of control | dose: 200.0 mg/kg/injection, schedule: Q04DX003 (ip), vehicle: Klucel (hydroxypropylcellulose) (HPC) 102 % of control | dose: 400.0 mg/kg/injection, schedule: Q04DX003 (ip), vehicle: Klucel (hydroxypropylcellulose) (HPC) 92 % of control

CCOC(=O)NNC(N)=S
inactive: [10] 100 % of control | [11] 93 % of control | [14] 93 % of control

Cc1ccc([N+](=O)[O-])c(O)c1[N+](=O)[O-]
inactive: [9] 100 % of control | [11] 90 % of control

COc1cc(Cc2nccc3cc(OC)c(OC)cc23)c(C(C)=O)cc1OC
inactive: [1] 93 % of control | [2] 102 % of control | [3] 97 % of control | [4] 103 % of control | [5] 100 % of control

CC1(C)N=C(N)N=C(N)N1c1cccc(C#N)c1
inactive: dose: 25.0 mg/kg/injection, schedule: Q01DX005 (ip), vehicle: saline 95 % of control | dose: 50.0 mg/kg/injection, schedule: Q01DX005 (ip), vehicle: saline 100 % of control | [6] 115 % of control | dose: 100.0 mg/kg/injection, schedule: Q01DX005 (ip), vehicle: saline 104 % of control | dose: 100.0 mg/kg/injection, schedule: Q04DX003 (ip), vehicle: saline 93 % of control

C=C1COC(O)(C2OCOC(C3CC(=O)NC(=O)C3)C2O)C1C (stereo not given)
inactive: dose: 2.0 micrograms/kg/injection, schedule: Q01DX009 (ip), vehicle: water 104 % of control | dose: 4.0 micrograms/kg/injection, schedule: Q01DX009 (ip), vehicle: water 104 % of control | dose: 8.0 micrograms/kg/injection, schedule: Q01DX009 (ip), vehicle: water 100 % of control | dose: 16.0 micrograms/kg/injection, schedule: Q01DX009 (ip), vehicle: water 108 % of control | dose: 32.0 micrograms/kg/injection, schedule: Q01DX009 (ip), vehicle: water 103 % of control

Nc1nc(=O)n(C2OC(CO)C(O)C2O)cc1F (stereo not given)
inactive: [2] 116 % of control | dose: 9.0 mg/kg/injection, schedule: Q01DX009 (ip), vehicle: saline 109 % of control | [3] 96 % of control | dose: 18.0 mg/kg/injection, schedule: Q01DX009 (ip), vehicle: saline 116 % of control | dose: 24.0 mg/kg/injection, schedule: Q01DX009 (ip), vehicle: saline 118 % of control | dose: 54.0 mg/kg/injection, schedule: Q01DX009 (ip), vehicle: saline 103 % of control

O=[N+]([O-])c1ccc(OCc2ccc(S(=O)(=O)F)c(Cl)c2)c(Cl)c1
inactive: [10] 102 % of control | [11] 100 % of control | [14] 97 % of control

Cc1ccc(CCCC(=O)O)c(C)c1
inactive: [10] 104 % of control | [11] 96 % of control | [14] 97 % of control

COc1c(O)cc2c(c1OC)-c1ccc(OC)c(=O)cc1[C@@H](NC(C)=O)CC2
inactive: dose: 0.62 mg/kg/injection, schedule: Q01DX009 (ip), vehicle: saline with Tween-80 123 % of control

CCOC(=O)c1ccc(NC(=O)Nc2ccc(Cl)cc2)cc1
inactive: [10] 106 % of control | [11] 106 % of control | [14] 100 % of control

Cc1ccccc1Oc1ccccc1N
inactive: dose: 50.0 mg/kg/injection, schedule: Q01DX009 (sc), vehicle: olive oil, sesame oil, peanut oil 88 % of control | dose: 100.0 mg/kg/injection, schedule: Q01DX009 (sc), vehicle: olive oil, sesame oil, peanut oil 90 % of control | dose: 200.0 mg/kg/injection, schedule: Q01DX009 (sc), vehicle: olive oil, sesame oil, peanut oil 97 % of control | dose: 400.0 mg/kg/injection, schedule: Q01DX009 (sc), vehicle: olive oil, sesame oil, peanut oil 90 % of control

CCOC(=O)C(=Cc1ccc(C=C(C(=O)OCC)C(=O)OCC)cc1)C(=O)OCC
inactive: [9] 93 % of control | [11] 93 % of control

ClCCOC1COC(OCCCl)CO1 (stereo not given)
inactive: dose: 3.12 mg/kg/injection, schedule: Q01DX009 (ip), vehicle: Klucel (hydroxypropylcellulose) (HPC) 103 % of control | dose: 6.25 mg/kg/injection, schedule: Q01DX009 (ip), vehicle: Klucel (hydroxypropylcellulose) (HPC) 98 % of control | [12] 93 % of control | [13] 103 % of control | [9] 96 % of control | [10] 98 % of control | [11] 100 % of control

NC(N)=NC(N)=Nc1ccc(-c2ccc(N=C(N)N=C(N)N)cc2)cc1
inactive: dose: 6.25 mg/kg/injection, schedule: Q01DX009 (ip), vehicle: saline with Tween-80 102 % of control | [15] 96 % of control

Oc1ccc(/C=N\N=C\c2ccc(O)cc2)cc1
inactive: [7] 95 % of control | [8] 90 % of control

CC(=O)CC(=O)Oc1ccccc1OC(C)=O
inactive: [9] 94 % of control | [10] 100 % of control

From PubChem BioAssay AID192 (DTP/NCI, 2004)
